Results reported in US20170114049A1, “2,5-DISUBSTITUTED CYCLOPENTANE CARBOXYLIC ACIDS FOR THE TREATMENT OF RESPIRATORY TRACT DISEASES” (BAYER PHARMA AKTIENGESELLSCHAFT, priority 2014, published 2017).
In brackets after ≈: the same amount, converted by molar mass. One block for each molecule: values may come before it.

Key:
rat hepatocytes = test: Hepatocyte assay for determination of metabolic stability; conditions: after incubation with rat hepatocytes
Description: Seven samples from the incubation solution are taken for the LC-MS analysis within a fixed time pattern, in order to determine the half-life (i.e. the degradation) of the particular compound. This half life is used to calculate various “Clearance” parameters (CL) and “Fmax” values (see below).
The CL and Fmax values are a measure of the phase 1 and phase 2 metabolism of the compounds in the hepatocytes. In order to minimize the influence of the organic solvent on the enzymes in the incubation batches, the concentration thereof is generally limited to 1% (acetonitrile) or 0.1% (DMSO).
For all species and breeds, a hepatocyte cell count in the liver of 1.1*10^8 cells/g of liver is expected.
The parameters calculated and the meanings thereof are: • Fmax well-stirred [%] maximum possible bioavailability after oral administration • Calculation: (1-CLblood well-stirred/QH)*100 • CLblood well-stirred [L/(h*kg)] calculated blood clearance (well-stirred model) • Calculation: (QH*CLintrinsic)/(QH+CL′intrinsic) • CL′intrinsic[ml/(min*kg)] maximum ability of the liver (of the hepatocytes) to metabolize a compound (assuming that the liver blood flow is not rate-limiting) • Calculation: CLintrinsic, apparent* species-specific hepatocyte count [1.1* 10^8/g liver]*species-specific liver weight [g/kg] • CL′intrinsic, apparent[ml/(min*mg)] normalizes the elimination constant by dividing it by the hepatocyte cell count x used (x*10^6/ml) • Calculation: kcl[1/min]/(cell count [x*10^6]/incubation volume [ml]) • (QH=species-specific liver blood flow).

[1] = molecular target: T1, human macrophage elastase (HME/hMMP-12) (Homo sapiens, UniProt P39900); test: In vitro HME inhibition test (standard or high-sensitivity); type: biochemical; conditions: standard or high-sensitivity HME inhibition test; read-out: HME/hMMP-12 IC50
T1 construct: 0.5 nM HME; purchased R&D Systems 917-MP
T1 sequence (P39900 106-470): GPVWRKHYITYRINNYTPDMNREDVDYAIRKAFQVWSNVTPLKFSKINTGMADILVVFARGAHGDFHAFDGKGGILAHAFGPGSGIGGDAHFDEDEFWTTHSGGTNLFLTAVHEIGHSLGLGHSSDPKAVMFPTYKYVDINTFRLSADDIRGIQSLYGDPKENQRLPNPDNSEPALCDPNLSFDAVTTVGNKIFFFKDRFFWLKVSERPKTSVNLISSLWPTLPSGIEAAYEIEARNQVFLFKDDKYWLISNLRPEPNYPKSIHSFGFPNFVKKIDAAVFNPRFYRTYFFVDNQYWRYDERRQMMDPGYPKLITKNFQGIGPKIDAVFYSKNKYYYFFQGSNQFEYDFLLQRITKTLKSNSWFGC
Description: The potency of the compounds according to the invention with respect to HME (MMP-12) is determined in an in vitro inhibition test. The HME-mediated amidolytic cleavage of a suitable peptide substrate leads to an increase in fluorescent light therein. The signal intensity of the fluorescent light is directly proportional to the enzyme activity. The active concentration of a test compound at which half the enzyme is inhibited (50% signal intensity of the fluorescent light) is reported as the IC50 value.
In a 384 hole microtiter plate, in a total test volume of 41 μl, the test buffer (0.1 M HEPES pH 7.4, 0.15 M NaCl, 0.03 M CaCl2, 0.004 mM ZnCl2, 0.02 M EDTA, 0.005% Brij®), the enzyme (0.5 nM HME; from R&D Systems, 917-MP, autocatalytic activation according to the manufacturer's instructions) and the intramolecularly quenched substrate [5 μM Mca-Pro-Leu-Gly-Leu-Glu-Glu-Ala-Dap(Dnp)-NH2; Bachem, M-2670] are incubated in the absence and presence of the test substance (as a solution in DMSO) at 37° C. for two hours. The fluorescence intensity of the test mixtures is measured (excitation […], emission 393 nm). The IC50 values are ascertained by plotting the fluorescent light intensity against the active ingredient concentration.
In this case, an enzyme concentration ten times lower is used (final concentration, for example, 0.05 nM) in order to achieve an elevated test sensitivity. The incubation period chosen for the test is correspondingly longer (for example 16 hours).

[2] = Determination of solubility in PBS buffer pH 6.5; conditions: PBS buffer pH 6.5, 1% DMSO, room temperature; for Solubility: 24 h; for solubility at 24 h: PBS buffer, pH 6.5, aqueous buffer, kinetic from dmso stock
Description: The test substance is dissolved in DMSO. An aliquot is taken from this solution and introduced into PBS buffer pH 6.5 (DMSO content: 1%). This solution/suspension is agitated at room temperature for 24 h. After ultracentrifugation at 114000 g for 30 min, the supernatant is removed, diluted with acetonitrile/water 8:2 and analysed by LC-MSMS. Quantification is effected by means of a five-point calibration curve of the test compound in DMSO.

Molecule: O=C(O)[C@@H]1[C@@H](Cn2nnc3ccccc3c2=O)CC[C@H]1C(=O)c1ccc(OCCC2CCOCC2)cc1 (racemic) [Example 5, (+)-(1RS,2SR,5RS)-2-[(4-Oxo-1,2,3-benzotriazin-3(4H)-yl)methyl]-5-{4-[2-(tetrahydro-2H-pyran-4-yl)ethoxy]benzoyl}cyclopentanecarboxylic acid]
CLblood (calculated blood clearance, well-stirred) (rat hepatocytes): 14.5 mL/min/kg
Fmax (maximum possible bioavailability after oral administration, well-stirred) (rat hepatocytes): 79.2%

Molecule: O=C(O)[C@@H]1[C@@H](Cn2nnc3ccc(C(F)(F)F)cc3c2=O)CC[C@H]1C(=O)c1ccc(OCCC2CCOCC2)cc1 (racemic) [Example 11, (+)-(1RS,2SR,5RS)-2-{[4-Oxo-6-(trifluoromethyl)-1,2,3-benzotriazin-3(4H)-yl]methyl}-5-{4-[2-(tetrahydro-2H-pyran-4-yl)ethoxy]benzoyl}cyclopentanecarboxylic acid]
CLblood (calculated blood clearance, well-stirred) (rat hepatocytes): 5 mL/min/kg
Fmax (maximum possible bioavailability after oral administration, well-stirred) (rat hepatocytes): 92.9%

Molecule: O=C(O)[C@H]1[C@H](Cn2nnc3ccc(C(F)(F)F)cc3c2=O)CC[C@@H]1C(=O)c1ccc(SCC2CCOCC2)cc1 (racemic) [Example 13, (+/−)-(1RS,2SR,5RS)-2-{[4-Oxo-6-(trifluoromethyl)-1,2,3-benzotriazin-3 (4H)-yl]methyl}-5-{4-[(tetrahydro-2H-pyran-4-ylmethyl)sulphanyl]benzoyl}cyclopentanecarboxylic acid]
IC50 [1]: 0.48 nM

Molecule: O=C(O)[C@@H]1[C@@H](Cn2nnc3ccc(C(F)(F)F)cc3c2=O)CC[C@H]1C(=O)c1ccc(SCC2CCOCC2)cc1 (single isomer, unassigned) [Example 14, (−)-(1RS,2SR,5RS)-2-{[4-Oxo-6-(trifluoromethyl)-1,2,3-benzotriazin-3(4H)-yl]methyl}-5-{4-[(tetrahydro-2H-pyran-4-ylmethyl)sulphanyl]benzoyl}cyclopentanecarboxylic acid]
IC50 [1]: 10 nM
solubility at 24 h [2]: 80 µg/mL (≈ 139 µM)

Molecule: O=C(O)[C@@H]1[C@@H](Cn2nnc3ccccc3c2=O)CC[C@H]1C(=O)c1ccc(OCCC2CCOCC2)cc1 (stereo in doubt) [Example 6, (−)-(1RS,2SR,5RS)-2-[(4-Oxo-1,2,3-benzotriazin-3(4H)-yl)methyl]-5-{4-[2-(tetrahydro-2H-pyran-4-yl)ethoxy]benzoyl}cyclopentanecarboxylic acid]
IC50 [1]: 80 nM
Solubility [2]: 354.9 µg/mL (≈ 702 µM)

Molecule: O=C(O)[C@@H]1[C@@H](Cn2nnc3ccc(C(F)(F)F)cc3c2=O)CC[C@H]1C(=O)c1ccc(OCCC2CCOCC2)cc1 (stereo in doubt) [Example 12, (−)-(1RS,2SR,5RS)-2-{[4-Oxo-6-(trifluoromethyl)-1,2,3-benzotriazin-3(4H)-yl]methyl}-5-{4-[2-(tetrahydro-2H-pyran-4-yl)ethoxy]benzoyl}cyclopentanecarboxylic acid]
IC50 [1]: 90 nM
Solubility [2]: 240 µg/mL (≈ 418 µM)

Molecule: (−)-(1RS,2SR,5RS)-2-{[4-Oxo-6-(trifluoromethyl)-1,2,3-benzotriazin-3(4H)-yl]methyl}-5-[4-(tetra-hydro-2H-pyran-4-ylmethoxy)benzoyl]cyclopentanecarboxylic acid [Example 9]
IC50 [1]: 42 nM

Next, values leading:

Solubility [2]: 100 µg/mL (≈ 174 µM)
CLblood (calculated blood clearance, well-stirred) (rat hepatocytes): 2.67 mL/min/kg
Fmax (maximum possible bioavailability after oral administration, well-stirred) (rat hepatocytes): 96.1%
Molecule: O=C(O)[C@@H]1[C@@H](Cn2nnc3ccc(C(F)(F)F)cc3c2=O)CC[C@H]1C(=O)c1ccc(SCC2CCOCC2)cc1 (racemic) [Example 15, (+)-(1RS,2SR,5RS)-2-{[4-Oxo-6-(trifluoromethyl)-1,2,3-benzotriazin-3(4H)-yl]methyl}-5-{4-[(tetrahydro-2H-pyran-4-ylmethyl)sulphanyl]benzoyl}cyclopentanecarboxylic acid]

IC50 [1]: 0.17 nM
Molecule: Cc1ccc2nnn(C[C@@H]3CC[C@H](C(=O)c4ccc(OCC5CCOCC5)cc4)[C@H]3C(=O)O)c(=O)c2c1 (racemic) [Example 16, (+/−)-(1RS,2SR,5RS)-2-[(6-Methyl-4-oxo-1,2,3-benzotriazin-3(4H)-yl)methyl]-5-[4-(tetrahydro-2H-pyran-4-ylmethoxy)benzoyl]cyclopentanecarboxylic acid]

Solubility [2]: 330 µg/mL (≈ 653 µM)
Molecule: Cc1ccc2nnn(C[C@H]3CC[C@@H](C(=O)c4ccc(OCC5CCOCC5)cc4)[C@@H]3C(=O)O)c(=O)c2c1 (racemic) [Example 18, (−)-(1RS,2SR,5RS)-2-[(6-Methyl-4-oxo-1,2,3-benzotriazin-3(4H)-yl)methyl]-5-[4-(tetrahydro-2H-pyran-4-ylmethoxy)benzoyl]cyclopentanecarboxylic acid]

CLblood (calculated blood clearance, well-stirred) (rat hepatocytes): 12.8 mL/min/kg
Fmax (maximum possible bioavailability after oral administration, well-stirred) (rat hepatocytes): 81.8%
Molecule: Cc1ccc2nnn(C[C@H]3CC[C@@H](C(=O)c4ccc(OCCC5CCOCC5)cc4)[C@@H]3C(=O)O)c(=O)c2c1 (racemic) [Example 20, (+)-(1RS,2SR,5RS)-2-[(6-Methyl-4-oxo-1,2,3-benzotriazin-3(4H)-yl)methyl]-5-{4-[2-(tetrahydro-2H-pyran-4-yl)ethoxy]benzoyl}cyclopentanecarboxylic acid]

IC50 [1]: 0.03 nM
solubility at 24 h [2]: 250 µg/mL (≈ 494 µM)
Molecule: Cc1ccc2nnn(C[C@H]3CC[C@@H](C(=O)c4ccc(OCC5CCOCC5)cc4)[C@@H]3C(=O)O)c(=O)c2c1 (single isomer, unassigned) [Example 17, (+)-(1RS,2SR,5RS)-2-[(6-Methyl-4-oxo-1,2,3-benzotriazin-3(4H)-yl)methyl]-5-[4-(tetrahydro-2H-pyran-4-ylmethoxy)benzoyl]cyclopentanecarboxylic acid]

IC50 [1]: 3.3 nM
Molecule: Cc1ccc2nnn(C[C@H]3CC[C@@H](C(=O)c4ccc(OCC5CCOCC5)cc4)[C@@H]3C(=O)O)c(=O)c2c1 (single isomer, unassigned) [Example 18, (−)-(1RS,2SR,5RS)-2-[(6-Methyl-4-oxo-1,2,3-benzotriazin-3(4H)-yl)methyl]-5-[4-(tetrahydro-2H-pyran-4-ylmethoxy)benzoyl]cyclopentanecarboxylic acid]

IC50 [1]: 78 nM
Molecule: Cc1ccc2nnn(C[C@H]3CC[C@@H](C(=O)c4ccc(OCCC5CCOCC5)cc4)[C@@H]3C(=O)O)c(=O)c2c1 (single isomer, unassigned) [Example 21, (−)-(1RS,2SR,5RS)-2-[(6-Methyl-4-oxo-1,2,3-benzotriazin-3(4H)-yl)methyl]-5-{4-[2-(tetrahydro-2H-pyran-4-yl)ethoxy]benzoyl}cyclopentanecarboxylic acid]
